Measured values: article PMC7887271, “Fast acting allosteric phosphofructokinase inhibitors block trypanosome glycolysis and cure acute African trypanosomiasis in mice” (Nature Communications, 2021)
“And” between values parts separate entries of the source, which are not always exact repeats. Identical values can stand only once.

What was measured:
T. b. brucei GVR35-Luc2 = T. b. brucei GVR35-Luc2 time-to-kill assay (luciferin); type: cell-based; conditions: for Luminescence (medium-subtracted), Average: average of replicates; for % Cell viability, individual replicates / % Inhibition, individual replicates / Luminescence (medium-subtracted), individual replicates: replicate wells; for Luminescence, Average / Luminescence, individual replicates: Time to kill assay for GVR35 cells
Description: Enzyme activity was measured using an aldolase/TIM linked assay at 25 °C. […] Experiments were carried out in duplicate. Data are presented as mean values ± standard deviation. […] Source data are provided as a Source Data File. b Kill time of CTCB-405 compared with existing HAT drugs in the clinic. […] Over 99% of trypanosomes were killed in under 30 min compared with much slower killing rates for the other drugs. The points on the graph for CTCB-405 were determined from two independent biological replicate experiments with each time point measured twice (using duplicate technical replicates). The ESD for each point on the graph is between 0.7 and 1.4%. For drugs in clinical use each point on the graph is the average of two technical replicates from one experiment (with a maximum difference of 7.8% for any of the points). Source data are provided as a Source Data File.
As predicted from the biology of the BSF that relies wholly on glycolysis for ATP production, inhibition of the pathway results in a very fast TTK. Two experimental methods were used to measure ATP levels as a real-time indicator of viability. For Tb427 parasites, a Cell Titre Glo kit was used and for the TbGVR35 bioluminescent strain, killing was assessed by adding luciferin which requires ATP to produce a luminescent signal (Supplementary Methods 4.3 and 4.4). […] The BSF of T. brucei cannot produce ATP by oxidative phosphorylation and is solely dependent on flux through the glycolytic pathway. The clear correlation between inhibitor dose and reduction in ATP production, as observed in the TTK assays strongly supports the proposed mode of action of the CTCB compounds is by blocking glycolysis. It is a long-established experimental observation that withdrawal of glucose nutrient leads to rapid loss of motility and cell death. It has recently been shown that the BSF of T. brucei can proliferate on high levels of glycerol; however, we have shown that addition of glycerol to the medium has little effect on parasite killing by the CTCB compounds (Supplementary Table 3).
The killing of T. b. brucei GVR35-Luc2 was assessed by adding D-luciferin to live cells resulting in the production of light in the presence of ATP and luciferase activity. Compounds of interest were serially diluted from 16 µM to 0.5 µM in Modified HMI-9 medium and added into sterile white, flat bottom 96-well plate (Greiner Inc.). 32,000 trypanosomes were added to each well. The plates were incubated at 37 °C and 5% CO2. At the end of each incubation, 200 µg/ml of D-luciferin was added to each well and incubated for 10 min. Luminescence was measured using a BMG plate reader and percentage cell viability versus incubation time was determined.

MDCK-MDR1 = conditions: dog
CYP2C19 = target: T1, CYP2C19 (Homo sapiens, UniProt P33261); experiment: Inhibition of CYP2C19; type: in vitro ADME; conditions: CYP450 isoform inhibition kit (BD Biosciences), probe CEC
T1 construct: purchased BD Biosciences
Description: A HepG2 cytotoxicity assay was used to determine a cellular selectivity index. HepG2 cells were seeded into 96-well plates in EMEM medium. Compounds were assessed for their effect upon cellular viability (Supplementary Methods 5.1). Inhibition of CYP450 was determined using kits from BD Biosciences (Supplementary Methods 5.2). Metabolic stability was determined using mouse […] tested at a single concentration of 5 µM. Plasma protein binding was determined using mouse and human plasma at a single concentration of 10 µM (Supplementary Methods 5.4). All PK studies in mice were carried out by Pharmidex (Supplementary Methods 6.1).
The compounds were investigated for their inhibitory effect on cytochrome P450 (CYP450) activity using five CYP450 isoforms (with fluorescent substrates in brackets): 3A4 (two substrates, BFC and DBF), 2D6 (AMMC), 2C9 (MFC), 2C19 (CEC) and 1A2 (CEC). Kits from BD Biosciences were used along with the method described by the manufacturer. […] Fluorescence was measured using a SpectraMax M5 plate reader.

T. b. rhodesiense = experiment: EC50 against in vitro cultured T. b. rhodesiense (STMI); type: cell-based; conditions: Trypanosoma brucei
[1] = 0.5 h, mean, suramin, fexinidazole, SCYX-7158 11 µM, CTCB-405 4 µM
[2] = 1 h, mean, suramin, fexinidazole, SCYX-7158 11 µM, CTCB-405 4 µM
[3] = 2 h, mean, suramin, fexinidazole, SCYX-7158 11 µM, CTCB-405 4 µM
[4] = 4 h, mean, suramin, fexinidazole, SCYX-7158 11 µM, CTCB-405 4 µM
[5] = 6 h, mean, suramin, fexinidazole, SCYX-7158 11 µM, CTCB-405 4 µM
[6] = 8 h, mean, suramin, fexinidazole, SCYX-7158 11 µM, CTCB-405 4 µM
[7] = GVR35 TTK, 24 h incubation, average
[8] = GVR35 TTK, 24 h incubation, from average
[9] = GVR35 TTK, 24 h sheet, summary line marked "4"

T1 sequence (P33261 whole entry, canonical isoform): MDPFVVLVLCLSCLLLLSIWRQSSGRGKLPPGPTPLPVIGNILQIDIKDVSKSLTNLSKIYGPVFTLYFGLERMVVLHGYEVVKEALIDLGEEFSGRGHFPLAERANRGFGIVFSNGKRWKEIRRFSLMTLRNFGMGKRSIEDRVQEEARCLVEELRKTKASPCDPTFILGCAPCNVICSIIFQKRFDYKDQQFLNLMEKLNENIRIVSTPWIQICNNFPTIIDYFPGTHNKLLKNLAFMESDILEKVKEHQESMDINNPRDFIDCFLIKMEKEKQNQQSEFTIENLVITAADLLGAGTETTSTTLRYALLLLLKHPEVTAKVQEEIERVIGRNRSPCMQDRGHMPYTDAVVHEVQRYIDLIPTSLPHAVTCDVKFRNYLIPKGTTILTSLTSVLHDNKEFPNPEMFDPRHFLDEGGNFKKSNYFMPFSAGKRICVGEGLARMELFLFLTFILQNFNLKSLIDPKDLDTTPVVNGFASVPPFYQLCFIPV

Compound: CNCCn1ccc2c(ccn2Cc2ccc(Cl)c(Cl)c2)c1=O [CTCB-435]
- % Cell viability, single replicates (T. b. brucei GVR35-Luc2; 0.5 h): 0.549% and -0.0671%
- % Inhibition, single replicates (T. b. brucei GVR35-Luc2; 0.5 h): 99% and 100%
- % Cell viability (T. b. brucei GVR35-Luc2; 0.5 h, average): 0.247% and 0.241%
- % Inhibition (T. b. brucei GVR35-Luc2; [1]): 100%
- % Cell viability, single replicates (T. b. brucei GVR35-Luc2; 1 h): -0.883% and -0.918%
- % Inhibition, single replicates (T. b. brucei GVR35-Luc2; 1 h): 101%
- % Inhibition (T. b. brucei GVR35-Luc2; [2]): 101%
- % Cell viability, single replicates (T. b. brucei GVR35-Luc2; 2 h): -0.287% and -0.261%
- % Inhibition, single replicates (T. b. brucei GVR35-Luc2; 2 h): 100%
- % Cell viability (T. b. brucei GVR35-Luc2; 2 h, average): -0.274%
- % Inhibition (T. b. brucei GVR35-Luc2; [3]): 100%
- % Cell viability, single replicates (T. b. brucei GVR35-Luc2; 4 h): -0.785% and -0.904%
- % Inhibition, single replicates (T. b. brucei GVR35-Luc2; 4 h): 101%
- % Cell viability (T. b. brucei GVR35-Luc2; 4 h, average): -0.843% and 0% and -0.844%
- % Inhibition (T. b. brucei GVR35-Luc2; [4]): 101%
- % Cell viability, single replicates (T. b. brucei GVR35-Luc2; 6 h): -0.726% and -0.643%
- % Inhibition, single replicates (T. b. brucei GVR35-Luc2; 6 h): 101%
- % Cell viability (T. b. brucei GVR35-Luc2; 6 h, average): -0.684%
- % Inhibition (T. b. brucei GVR35-Luc2; [5]): 101%
- % Cell viability, single replicates (T. b. brucei GVR35-Luc2; 8 h): -0.436% and -0.367%
- % Inhibition, single replicates (T. b. brucei GVR35-Luc2; 8 h): 100%
- % Cell viability (T. b. brucei GVR35-Luc2; 8 h, average): -0.401%
- % Inhibition (T. b. brucei GVR35-Luc2; [6]): 100%
- % Cell viability, Average (T. b. brucei GVR35-Luc2; [7]): -0.136%
- Luminescence (medium-subtracted), Average (T. b. brucei GVR35-Luc2; GVR35 TTK, 24 h incubation): -47.5
- % Inhibition (T. b. brucei GVR35-Luc2; [8]): 100%
- % Cell viability, individual replicates (T. b. brucei GVR35-Luc2; GVR35 TTK, 24 h incubation): -0.139% and -0.134%
- % Inhibition, individual replicates (T. b. brucei GVR35-Luc2; GVR35 TTK, 24 h incubation): 100%
- Luminescence (medium-subtracted), individual replicates (T. b. brucei GVR35-Luc2; GVR35 TTK, 24 h incubation): -66.5 and -28.5
- % Cell viability (T. b. brucei GVR35-Luc2; [9]): -0.137%
- Luminescence, Average (T. b. brucei GVR35-Luc2; 0.5 hour incubation): 71
- Luminescence, individual replicates (T. b. brucei GVR35-Luc2; 0.5 hour incubation): 100 and 43
- Luminescence, Average (T. b. brucei GVR35-Luc2; 1hour incubation): 2
- Luminescence, individual replicates (T. b. brucei GVR35-Luc2; 1hour incubation): 3 and 1
- Luminescence, Average (T. b. brucei GVR35-Luc2; 2hour incubation): 50
- Luminescence, individual replicates (T. b. brucei GVR35-Luc2; 2hour incubation): 49 and 50
- Luminescence, Average (T. b. brucei GVR35-Luc2; 4hour incubation): -42
- Luminescence, individual replicates (T. b. brucei GVR35-Luc2; 4hour incubation): -34 and -51
- Luminescence, Average (T. b. brucei GVR35-Luc2; 6hour incubation): -65
- Luminescence, individual replicates (T. b. brucei GVR35-Luc2; 6hour incubation): -78 and -51
- Luminescence, Average (T. b. brucei GVR35-Luc2; 8hour incubation): -1.5
- Luminescence, individual replicates (T. b. brucei GVR35-Luc2; 8hour incubation): -12 and 9
- Luminescence, Average (T. b. brucei GVR35-Luc2; 24hour incubation): -48
- Luminescence, individual replicates (T. b. brucei GVR35-Luc2; 24hour incubation): -67 and -29

Compound: CN(C)CCn1ccc2c(ccn2Cc2ccc(Cl)c(Br)c2)c1=O [CTCB-470, 1-[(3-Bromo-4-chlorophenyl)methyl]-5-[2-(dimethylamino)ethyl] pyrrolo[3,2-c]pyridin-4-one]
- MDCK-MDR1 A-B (MDCK-MDR1): 34.9
- MDCK-MDR1 B-A (MDCK-MDR1): 28.3
- inhibition at 10 µM (CYP2C19): 45%
- EC50 (T. b. rhodesiense): 280 nM

Compound: CN(C)CCn1ccc2c(ccn2Cc2ccc(Cl)c(Cl)c2)c1=O [CTCB-405, 1-[(3,4-Dichlorophenyl)methyl]-5-[2-(dimethylamino)ethyl] pyrrolo[3,2-c]pyridin-4-one]
- trypanosomes killed in under 30 min (T. b. brucei GVR35-Luc2; 4 µM, GVR35 bioluminescent strain): Over 99%
- % Cell viability, single replicates (T. b. brucei GVR35-Luc2; 0.5 h): 0.291% and 2.73%
- % Inhibition, single replicates (T. b. brucei GVR35-Luc2; 0.5 h): 100% and 97%
- % Cell viability (T. b. brucei GVR35-Luc2; 0.5 h, average): 1.49% and 1.51%
- % Inhibition (T. b. brucei GVR35-Luc2; [1]): 99%
- % Cell viability, single replicates (T. b. brucei GVR35-Luc2; 1 h): -0.108% and -1%
- % Inhibition, single replicates (T. b. brucei GVR35-Luc2; 1 h): 100% and 101%
- % Inhibition (T. b. brucei GVR35-Luc2; [2]): 101%
- % Cell viability, single replicates (T. b. brucei GVR35-Luc2; 2 h): -0.773% and 0.055%
- % Inhibition, single replicates (T. b. brucei GVR35-Luc2; 2 h): 101% and 100%
- % Cell viability (T. b. brucei GVR35-Luc2; 2 h, average): -0.345% and -0.359%
- % Inhibition (T. b. brucei GVR35-Luc2; [3]): 100%
- % Cell viability, single replicates (T. b. brucei GVR35-Luc2; 4 h): -0.741% and -0.843%
- % Inhibition, single replicates (T. b. brucei GVR35-Luc2; 4 h): 101%
- % Cell viability (T. b. brucei GVR35-Luc2; 4 h, average): -0.791% and 0% and -0.792%
- % Inhibition (T. b. brucei GVR35-Luc2; [4]): 101%
- % Cell viability, single replicates (T. b. brucei GVR35-Luc2; 6 h): -0.633% and -0.494%
- % Inhibition, single replicates (T. b. brucei GVR35-Luc2; 6 h): 101% and 100%
- % Cell viability (T. b. brucei GVR35-Luc2; 6 h, average): -0.563% and -0.564%
- % Inhibition (T. b. brucei GVR35-Luc2; [5]): 101%
- % Cell viability, single replicates (T. b. brucei GVR35-Luc2; 8 h): -0.333% and -0.376%
- % Inhibition, single replicates (T. b. brucei GVR35-Luc2; 8 h): 100%
- % Cell viability (T. b. brucei GVR35-Luc2; 8 h, average): -0.354%
- % Inhibition (T. b. brucei GVR35-Luc2; [6]): 100%
- % Cell viability, Average (T. b. brucei GVR35-Luc2; [7]): -0.0941%
- Luminescence (medium-subtracted), Average (T. b. brucei GVR35-Luc2; GVR35 TTK, 24 h incubation): -1
- % Inhibition (T. b. brucei GVR35-Luc2; [8]): 100%
- % Cell viability, individual replicates (T. b. brucei GVR35-Luc2; GVR35 TTK, 24 h incubation): -0.0906% and -0.0976%
- % Inhibition, individual replicates (T. b. brucei GVR35-Luc2; GVR35 TTK, 24 h incubation): 100%
- Luminescence (medium-subtracted), individual replicates (T. b. brucei GVR35-Luc2; GVR35 TTK, 24 h incubation): -8.5 and 6.5
- % Cell viability (T. b. brucei GVR35-Luc2; [9]): -0.0937%
- Luminescence, Average (T. b. brucei GVR35-Luc2; 0.5 hour incubation): 184
- Luminescence, individual replicates (T. b. brucei GVR35-Luc2; 0.5 hour incubation): 76 and 293
- Luminescence, Average (T. b. brucei GVR35-Luc2; 1hour incubation): 41
- Luminescence, individual replicates (T. b. brucei GVR35-Luc2; 1hour incubation): 96 and -14
- Luminescence, Average (T. b. brucei GVR35-Luc2; 2hour incubation): 40
- Luminescence, individual replicates (T. b. brucei GVR35-Luc2; 2hour incubation): -17 and 96
- Luminescence, Average (T. b. brucei GVR35-Luc2; 4hour incubation): -33
- Luminescence, individual replicates (T. b. brucei GVR35-Luc2; 4hour incubation): -26 and -40
- Luminescence, Average (T. b. brucei GVR35-Luc2; 6hour incubation): -24
- Luminescence, individual replicates (T. b. brucei GVR35-Luc2; 6hour incubation): -47 and -1
- Luminescence, Average (T. b. brucei GVR35-Luc2; 8hour incubation): 13
- Luminescence, individual replicates (T. b. brucei GVR35-Luc2; 8hour incubation): 20 and 6
- Luminescence, Average (T. b. brucei GVR35-Luc2; 24hour incubation): -1
- Luminescence, individual replicates (T. b. brucei GVR35-Luc2; 24hour incubation): -8.5 and 6.5
- MDCK-MDR1 A-B (MDCK-MDR1): 17.6
- MDCK-MDR1 B-A (MDCK-MDR1): 17.2
- inhibition at 10 µM (CYP2C19): 64%
- EC50 (T. b. rhodesiense): 250 nM
